Assay results reported in US12611443B2, “Methods and compositions related to therapeutic peptides for cancer therapy” (THE UNIVERSITY OF CHICAGO, priority 2018, dated 2026).

Tests used:
[1] = tested on: Human monocyte-derived macrophages (HMDMs); test: Cell viability of HMDMs treated with purified ELANE or ECP; assay type: cell-based
Procedure: Primary human blood-derived cells.
(§1) In vitro cell viability assays. […] Luminescence was measured using a Victor X3 luminometer (PerkinElmer).

[2] = tested on: human/murine cancer cells; test: In vitro cell viability of cancer cells (calcein-AM, CASP3, ANXA5); assay type: cell-based; conditions: ELANE 3 μg/ml
Text: Cell lines. The ovarian cancer cell lines—CAOV3, OVCAR3, OVCAR4, OVCAR5, A2780, A2780/CP70, HeyA8, TykNu, SKOV3, ID8, and ID8p53-/- were a gift from Dr. Ernst Lengyel, University of Chicago. The breast cancer cell lines—MDA-MB-231, MDA-MB-231.BM1, MCF-7, M6C, E0771, and E0771.LMB were a gift from Dr. Marsha Rosner, University of Chicago. The colon carcinoma cell line RKO, glioblastoma cancer cell line T98G, osteosarcoma cell lines U-2OS and Saos-2, and the hepatocellular carcinoma cell line HepG2 were a gift from Dr. Kay McLeod, University of Chicago. The lung cancer cell line NCI-H552 was a gift from Dr. Stephanie Huang, University of Chicago, and A549 and LLC1 cells were purchased from ATTC. The melanoma cell lines—B16F10, Mel888, Mel1106, and SK-MEL-28 cells were a gift from Dr. Thomas Gajewski, University of Chicago. The pancreatic cancer cell line PANC1 was a gift from Dr. Yamuna Krishnan, University of Chicago. The leukemia cell line K562 was a gift from Dr. Amittha Wickrema, University of Chicago.
The prostate cancer cell lines—CWR22Rv1, LAPC4, and LNCaP were a gift from Dr. Donald Vander Griend, University of Chicago. The neuroblastoma cell lines—SK-N-BE(2) and NBL-WN cells were a gift from Dr. Lucy Godley, University of Chicago.
Neutrophil media collections. Freshly isolated human or murine neutrophils were plated in serum-free DMEM for 24 h. Conditioned media was collected, spun at 500×g for 5 min, and media protein levels were determined with a Bradford assay (Biorad).
PMN media manipulations. For boiling, PMN media was boiled at 95° C. for 5 min and spun at 15,000×g for 10 min to remove precipitated proteins. For dialysis, PMN media was placed into a Slide-a-Lyzer™ cassette (3.5 kDa cutoff, ThermoFisher Scientific) and dialyzed against 2×4L of PBS at 4° C. for 4 h. For PMSF-inactivation, PMN media was treated with PMSF (1 mM, Sigma) or A1AT (42 nM, Athens Research & Technology) and incubated at room temperature for up to 2 h. Residual PMSF was eliminated with a PD-10 desalting column (GE Healthcare Life). Inhibition of ELANE catalytic activity was confirmed using a chromogenic substrate activity assay (see below). For serum-spiking experiments, human, mouse, or fetal bovine serum (1% or 10%) was added to PMN media prior to or after exposing cancer cells. For immune-depletion studies, ELANE or ECP were immunoprecipitated using anti-ELANE (N2C3, GeneTx) or anti-ECP (MB S2535165, MyBioSource) coupled to Pierce™ Protein A/G Magnetic Beads (ThermoFisher Scientific).
as §1

CD95 = CD95 cleavage in cancer cells by western blotting; assay type: cell-based
Procedure: FIGS. 1A-1K. ELANE cleaves CD95 to selectively kill cancer cells. (A): Heatmap summary of ELANE's effects on survival, stress, and apoptosis pathways in cancer cells and healthy cells. (B-C): Cancer cells were treated with ELANE (100 nM) and CD95 cleavage was assessed by western blotting using anti-N-terminal (B) or anti-C-terminal antibodies (C). *, lower molecular weight CD95 fragment. (D): Cancer cells or non-cancer cells were transduced to overexpress CD95 proteins, and effects on ELANE-mediated apoptosis were quantified by ANXAS at 30 min. n=2/group. See FIG. 1I for transduction and CD95 over-expression. (E): Cleavage of recombinant human CD95 N-terminal (aa 1-173) or C-terminal (aa 212-335) proteins by ELANE was assessed by SDS-PAGE and Coomassie blue staining. (F): Bands from (E) were digested with trypsin and analyzed by mass spectrometry to identify putative ELANE cleavage sites (i.e., peptides with non-tryptic ends). Major non-tryptic peptides were quantified by ion chromatograms. (G): Schematic of ELANE cleavage sites in CD95. […] (H): Cleavage of recombinant peptides corresponding to aa 214-231 and aa 317-335 in CD95 by ELANE was monitored by mass spectrometry. […] Effect of Dynasore on cancer cell killing capability of ELANE (measured by calcein-AM). n=6/group. […]

MDA-MB-231 cells = test: Cell viability of MDA-MB-231 cells treated with purified ELANE or ECP; assay type: cell-based, human; conditions: MDA-MB-231
Procedure: as §1

ELANE: neutrophil elastase, a serine protease released by human PMNs
cell viability, purified protein [1]: did not kill Human monocyte-derived macrophages (HMDMs) | apoptosis in cancer cell lines [2]: effectively induced apoptosis in all cancer cell lines tested | loss of full-length CD95 after cleavage (CD95): did not result in loss of full-length CD95 | CD95 cleavage in cancer cells (CD95; ELANE 100 nM): cleaved CD95 in all cancer cells tested | cell viability, purified protein (MDA-MB-231 cells): killed MDA-MB-231 cells in a dose-dependent manner
